Patent US6656509B1, “Combination of selenium-containing compounds with cytostatics” (Biosyn Arzneimittel GmbH, priority 1998, dated 2003)
pIC50: −log10 of the molar value.

Key:
human tumor xenografts = test: clonogenic assay, all 12 xenografts (means, active/total); assay type: cell-based
Protocol: The cell mixture was passed through sieves of 200 μm and 50 μm mesh size and washed thereafter twice with PBS. The percentage of viable cells was determined in a Neubauer counting chamber using trypan blue exclusion.
8×10^3 to 1,6×10^4 cells were added to 0.2 ml of the same culture medium together with 0.4% agar and placed in already coated 24-multiwell dishes. Test substances were applied by continuous exposure (drug overlay) in 0.2 ml medium. Every dish included six control wells containing the vehicle- and drug-treated groups in triplicate at six concentrations.
Cultures were incubated at 37° and 7% CO2 in a humidified atmosphere for 5 to 15 days (depending on the doubling time of the tumor stem cells) and monitored for colony growth using an inverted microscope. Within this period, in vitro tumor growth led to the formation of colonies with a diameter of ≧50 μm. At the time of maximum colony formation counts were performed with an automatic image analysis system (OMNICOM Fas IV, Biosys GmbH). […] Drug effects were expressed in terms of the percentage of surviving cells, obtained by comparison of the mean number of colonies in the treated plates with the mean colony count of the untreated controls (test-versus-control-group value, T/C=colony countTreated Group*100/colony countControl Group).
(§1) Coefficient of variation in the control group ≦50%. IC50 and IC70 values were determined by plotting compound concentration versus cell survival rate. Mean IC50 and IC70 values were calculated according to the formula: [formula]
(§2) with x=specific tumor xenograft and n=total number of tumor xenografts studied. If an IC50 or IC70 value could not be determined within the examined dose range, the lowest or highest concentration studied was used for the calculation.

[1] = cited from earlier work
RXF 393 = test: clonogenic assay (colony forming assay); assay type: cell-based, human; settings: RXF 393/9; X194AM
Protocol: (§3) Solid human tumor xenografts growing subcutaneously in serial passages in thymus-aplastic nude mice (NMRI nu/nu strain, obtained from our own breeding facility) were removed under sterile conditions, the cells were mechanically disaggregated and subsequently incubated with an enzyme cocktail consisting of collagenase (1.2-1.8 U/ml, Worthington), DNAse (375 U/ml, Boehringer Mannheim) und hyaluronidase (29 U/ml, Boehringer Mannheim) in RPMI 1640 at 37° C. for 30 minutes. The cell mixture was passed through sieves of 200 μm and 50 μm mesh size and washed thereafter twice with PBS. The percentage of viable cells was determined in a Neubauer counting chamber using trypan blue exclusion.
(§4) The clonogenic assay was performed according to a modified two-layer soft agar assay described by Hamburger and Salmon (Hamburger and Salmon, Science, 197: 461463, 1977). The bottom layer consisted of 0.2 ml Iscoves' Modified Dulbecco's Medium with 20% fetal calf serum and 0.75% agar. 8×10^3 to 1,6×10^4 cells were added to 0.2 ml of the same culture medium together with 0.4% agar and placed in already coated 24-multiwell dishes. Test substances were applied by continuous exposure (drug overlay) in 0.2 ml medium. Every dish included six control wells containing the vehicle- and drug-treated groups in triplicate at six concentrations.
(§5) Cultures were incubated at 37° and 7% CO2 in a humidified atmosphere for 5 to 15 days (depending on the doubling time of the tumor stem cells) and monitored for colony growth using an inverted microscope. Within this period, in vitro tumor growth led to the formation of colonies with a diameter of ≧50 μm. At the time of maximum colony formation counts were performed with an automatic image analysis system (OMNICOM Fas IV, Biosys GmbH). 24 hours prior to this assay, vital colonies were stained with a sterile aqueous solution of 2-(4-iodophenyl)-3-(4-nitrophenyl)-5-phenyltetrazolium chloride (1 mg/ml, 100 μI/well). Drug effects were expressed in terms of the percentage of surviving cells, obtained by comparison of the mean number of colonies in the treated plates with the mean colony count of the untreated controls (test-versus-control-group value, T/C=colony countTreated Group*100/colony countControl Group).
as §1, §2

OVXF 899 = test: clonogenic assay (colony forming assay); assay type: cell-based, human; settings: OVXF 899/33; X185AM
Protocol: as §3, §4, §5, §1, §2

PRXF DU145X = test: clonogenic assay (colony forming assay); assay type: cell-based, human; settings: PRXF DU145X/15, X229AM
Protocol: as §3, §4, §5, §1, §2

[2] = corresponding selenium concentration
[3] = mean over the xenografts studied

O=[Se]([O-])[O-].[Na+].[Na+] [sodium selenite]
T/C values in all xenografts (human tumor xenografts; 100 μM): below 20%
active(++, +++)/total (human tumor xenografts; 1. μM): 0/12
active(++, +++)/total xenografts only, percent (human tumor xenografts; 1. μM): 0%
active(++, +++)/total (human tumor xenografts; 10. μM): 2/12
active(++, +++)/total xenografts only, percent (human tumor xenografts; 10. μM): 17%
active(++, +++)/total (human tumor xenografts; 100. μM): 12/12
active(++, +++)/total xenografts only, percent (human tumor xenografts; 100. μM): 100%
active(++, +++)/total (human tumor xenografts; .001 μM): 0/12
active(++, +++)/total xenografts only, percent (human tumor xenografts; .001 μM): 0%
active(++, +++)/total (human tumor xenografts; .01 μM): 0/12
active(++, +++)/total xenografts only, percent (human tumor xenografts; .01 μM): 0%
active(++, +++)/total (human tumor xenografts; .1 μM): 0/12
active(++, +++)/total xenografts only, percent (human tumor xenografts; .1 μM): 0%
cytotoxic effect (human tumor xenografts; amounts up to 1 μM): no distinct cytotoxic effect
mean IC50 as selenium concentration (human tumor xenografts; [2]): 1,2 μg/ml
mean IC70 as selenium concentration (human tumor xenografts; [2]): 2.1 µg/mL
pIC50 (human tumor xenografts; [3]): 4.81
mean IC70 (human tumor xenografts; [3]): 27 µM
dosage considered harmless in sensitive persons ([1]; humans, sensitive persons): up to 500 μg per day
safe maximum daily intake of selenium ([1]; humans, inferred from chronic toxicity observations): 820 µg
daily supply after which clinical signs of selenosis were observed ([1]; study carried out in China): 3200 to 6700 µg
Test/control (%) at drug concentration [μM] 1. (RXF 393): 31%
Test/control (%) at drug concentration [μM] 10. (RXF 393): 32%
Test/control (%) at drug concentration [μM] 100. (RXF 393): 10%
Test/control (%) at drug concentration [μM] .001 (RXF 393): 62%
Test/control (%) at drug concentration [μM] .01 (RXF 393): 45%
Test/control (%) at drug concentration [μM] .1 (RXF 393): 31%
Test/control (%) class at drug concentration [μM] 1. (RXF 393): + (+ (30% ≦ T/C < 50%))
Test/control (%) class at drug concentration [μM] 10. (RXF 393): + (+ (30% ≦ T/C < 50%))
Test/control (%) class at drug concentration [μM] 100. (RXF 393): +++ (+++ (T/C ≦ 10%))
Test/control (%) class at drug concentration [μM] .001 (RXF 393): − (− (T/C ≧ 50%))
Test/control (%) class at drug concentration [μM] .01 (RXF 393): − (− (T/C ≧ 50%))
Test/control (%) class at drug concentration [μM] .1 (RXF 393): + (+ (30% ≦ T/C < 50%))
Test/control (%) at drug concentration [μM] 1. (OVXF 899): 70%
Test/control (%) at drug concentration [μM] 10. (OVXF 899): 73%
Test/control (%) at drug concentration [μM] 100. (OVXF 899): 1%
Test/control (%) at drug concentration [μM] .001 (OVXF 899): 80%
Test/control (%) at drug concentration [μM] .01 (OVXF 899): 79%
Test/control (%) at drug concentration [μM] .1 (OVXF 899): 66%
Test/control (%) class at drug concentration [μM] 1. (OVXF 899): − (− (T/C ≧ 50%))
Test/control (%) class at drug concentration [μM] 10. (OVXF 899): − (− (T/C ≧ 50%))
Test/control (%) class at drug concentration [μM] 100. (OVXF 899): +++ (+++ (T/C ≦ 10%))
Test/control (%) class at drug concentration [μM] .001 (OVXF 899): − (− (T/C ≧ 50%))
Test/control (%) class at drug concentration [μM] .01 (OVXF 899): − (− (T/C ≧ 50%))
Test/control (%) class at drug concentration [μM] .1 (OVXF 899): − (− (T/C ≧ 50%))
Test/control (%) at drug concentration [μM] 1. (PRXF DU145X): 91%
Test/control (%) at drug concentration [μM] 10. (PRXF DU145X): 5%
Test/control (%) at drug concentration [μM] 100. (PRXF DU145X): 0%
Test/control (%) at drug concentration [μM] .001 (PRXF DU145X): 97%
Test/control (%) at drug concentration [μM] .01 (PRXF DU145X): 96%
Test/control (%) at drug concentration [μM] .1 (PRXF DU145X): 92%
Test/control (%) class at drug concentration [μM] 1. (PRXF DU145X): − (− (T/C ≧ 50%))
Test/control (%) class at drug concentration [μM] 10. (PRXF DU145X): +++ (+++ (T/C ≦ 10%))
Test/control (%) class at drug concentration [μM] 100. (PRXF DU145X): +++ (+++ (T/C ≦ 10%))
Test/control (%) class at drug concentration [μM] .001 (PRXF DU145X): − (− (T/C ≧ 50%))
Test/control (%) class at drug concentration [μM] .01 (PRXF DU145X): − (− (T/C ≧ 50%))
Test/control (%) class at drug concentration [μM] .1 (PRXF DU145X): − (− (T/C ≧ 50%))
Test/control (%) at drug concentration [μM] 10. (PRXF DU145X; listed as selenium): < 30%
